# Test results: patent US20230128889A1, “REL/RELA/SPOT SMALL MOLECULES MODULATORS AND SCREENING METHODS” (priority 2020, published 2023)
# Test system: Rel synthetase (ST)
# Experiment: Inhibition of Rel synthetase activity: (p)ppGpp production from GDP or GTP and radioactive ATP, TLC
# Format: biochemical
# Conditions: enzyme with GDP or GTP and radioactive ATP, absence or presence of compound
# Experimental: (§1) As indicated above, the “Yes/No” in the 5th and 6th columns of TABLES A to F indicates whether there is, or respectively is not an inhibition of the synthetase (ST) and/or hydrolase (HD) activity. […] The action of a candidate compound is evaluated based on its effect on the production of (p)ppGpp. Therefore, in order to assess the potential influence of a candidate compound on synthesis activity, the enzyme was mixed with GDP or GTP and radioactive ATP to produce (p)ppGpp in absence or presence of the candidate compound. Subsequently, the reaction is developed by thin layer chromatography (TLC). In an alternative assay that enables determining the effect of a compound on the hydrolysis activity, radioactive (p)ppGpp is incubated with the enzyme and any decrease of the (p)ppGpp spot on TLC is evaluated when the assay is conducted in presence of the compound and compared to control conditions where no candidate compound is added during incubation.
row,Structure (SMILES),ST (inhibition of the synthetase activity)
1,COc1ccc(-c2cc3ccc(OCc4nnn[nH]4)cc3oc2=O)cc1 [Compound 12],Yes
2,Cc1c(Cc2ccccc2)c(=O)oc2cc(OCc3nnn[nH]3)ccc12 [Compound 18],Yes
3,Cc1c(Cc2ccccc2)c(=O)oc2cc(OCC(=O)O)ccc12 [Compound 10],Yes
4,O=C(Cc1ccc(Cl)cc1)Nc1ccc(-c2ccc(NC(=O)Cc3ccc(Cl)cc3)c(C(=O)O)c2)cc1C(=O)O [Compound 72],Yes
5,COc1ccc(CC(=O)Nc2ccc(N3CCC(N4CCCCC4)CC3)cc2C(=O)O)cc1 [Compound 73],Yes
6,CCCCCCc1c(C)c2ccc(OCc3nnn[nH]3)cc2oc1=O [Compound 16],Yes
7,O=C(Nc1nnn[nH]1)c1ccc2c(Br)cccc2c1 [Compound 22],Yes
8,CC(NC(=O)c1cc([N+](=O)[O-])c[nH]1)c1ccc2ccccc2c1 (stereo not shown) [Compound 23],Yes
9,O=C1Nc2ccccc2/C1=N\c1cccc([N+](=O)[O-])c1 [Compound 39],Yes
10,Cc1ccc(CC(=O)Nc2ccc(N3CCN(CC(=O)NC(C)(C)C)CC3)cc2C(=O)O)cc1 [Compound 70],Yes
11,Cc1c(Br)c([N+](=O)[O-])nn1CC(=O)Nc1ccc(Cl)cc1Cl [Compound 67],Yes
12,O=C1CCc2cc(-c3csc(NC(=O)c4cccc([N+](=O)[O-])c4)n3)ccc2N1 [Compound 7],No
13,O=C(O)CCNS(=O)(=O)c1ccc2[nH]c(=O)[nH]c2c1 [Compound 25],No
14,O=[N+]([O-])c1cccc(CN2CCN(S(=O)(=O)c3ccc4ccccc4c3)CC2)c1 [Compound 5],No
15,O=C(O)CC(CNC(=O)CCn1nnc2ccccc2c1=O)c1ccc(Cl)cc1 (stereo not shown) [Compound 4],No
16,CC(C(=O)O)C(NC(=O)C(C)n1nnc(-c2ccccc2)n1)c1ccccc1 (stereo not shown) [Compound 61],No
17,O=C(O)CCC(=Cc1ccc(OCC(=O)O)cc1)c1nc2ccccc2s1 [Compound 44],Yes
18,O=c1oc2cc(OCc3nnn[nH]3)ccc2cc1-c1ccccc1 [Compound 13],Yes

row,Structure (SMILES),ST (inhibition of the synthetase activity)
1,COc1ccc(C=C2C(=O)Nc3ccc(C(=O)O)cc32)cc1 [Compound 37],Yes
2,O=C(CC(C(=O)O)C1CCCO1)NCCc1ccc2c(c1)OCO2 (stereo not shown) [Compound 36],no
3,O=C1c2cccc3cc([N+](=O)[O-])cc(c23)C(=O)N1O [Compound 50],Yes
4,O=C(O)Cn1cc(/C=C2/C(=O)Nc3ccccc32)c2ccccc21 [Compound 40],Yes
5,O=[N+]([O-])c1ccccc1OCCn1nnc(-c2ccccc2)n1 [Compound 60],No
6,O=c1oc2cc(OCc3nnn[nH]3)ccc2cc1-c1ccc(F)cc1 [Compound 14],Yes
7,COc1ccc2[nH]cc(CCNC(=O)c3nccnc3C(=O)O)c2c1 [Compound 29],No
8,Cc1ccccc1-n1c(SCC(=O)NC(=O)c2cccc([N+](=O)[O-])c2)nnc1-c1ccncc1 [Compound 65],No
9,Fc1cccc(-c2nnn(Cc3nnn[nH]3)n2)c1 [Compound 58],No
10,Cc1c(CC(=O)O)c(=O)oc2cc(O)cc(O)c12 [Compound 1],No
11,O=C(O)CNS(=O)(=O)c1ccc2c(c1)NC(=O)CS2 [Compound 3],No
12,O=c1oc2cc(OCc3nnn[nH]3)ccc2cc1-c1ccc(Cl)cc1 [Compound 20],Yes
13,Cc1nnc2ccc(N3CCN(C(=O)Nc4ccccc4[N+](=O)[O-])CC3)nn12 [Compound 56],No
14,Cc1ccc(Nc2nc(N/N=C/c3cc(Cl)ccc3O)nc(Nc3ccc([N+](=O)[O-])cc3)n2)cc1C [Compound 66],Yes
15,O=C(O)CCCC(=O)Nc1cc2[nH]c(=O)[nH]c2cc1N1CCCC1 [Compound 35],no
16,O=C(c1cc(-c2cccc(Cl)c2)[nH]n1)N1CCc2ccc([N+](=O)[O-])cc21 [Compound 30],No
17,Cc1ccc(-n2cnnn2)cc1OCc1nnn[nH]1 [Compound 57],No

# Test system: Rel hydrolase (HD)
# Experiment: Inhibition of Rel hydrolase activity: decrease of radioactive (p)ppGpp spot on TLC
# Format: biochemical
# Conditions: radioactive (p)ppGpp incubated with enzyme, with vs without compound
# Experimental: as §1
row,Structure (SMILES),HD (inhibition of the hydrolase activity)
1,COc1ccc(-c2cc3ccc(OCc4nnn[nH]4)cc3oc2=O)cc1 [Compound 12],No
2,Cc1c(Cc2ccccc2)c(=O)oc2cc(OCc3nnn[nH]3)ccc12 [Compound 18],Yes
3,Cc1c(Cc2ccccc2)c(=O)oc2cc(OCC(=O)O)ccc12 [Compound 10],No
4,O=C(Cc1ccc(Cl)cc1)Nc1ccc(-c2ccc(NC(=O)Cc3ccc(Cl)cc3)c(C(=O)O)c2)cc1C(=O)O [Compound 72],Yes
5,COc1ccc(CC(=O)Nc2ccc(N3CCC(N4CCCCC4)CC3)cc2C(=O)O)cc1 [Compound 73],Yes
6,CCCCCCc1c(C)c2ccc(OCc3nnn[nH]3)cc2oc1=O [Compound 16],Yes
7,O=C(Nc1nnn[nH]1)c1ccc2c(Br)cccc2c1 [Compound 22],Yes
8,CC(NC(=O)c1cc([N+](=O)[O-])c[nH]1)c1ccc2ccccc2c1 (stereo not shown) [Compound 23],Yes
9,O=C1Nc2ccccc2/C1=N\c1cccc([N+](=O)[O-])c1 [Compound 39],No
10,Cc1ccc(CC(=O)Nc2ccc(N3CCN(CC(=O)NC(C)(C)C)CC3)cc2C(=O)O)cc1 [Compound 70],Yes
11,Cc1c(Br)c([N+](=O)[O-])nn1CC(=O)Nc1ccc(Cl)cc1Cl [Compound 67],Yes
12,O=C1CCc2cc(-c3csc(NC(=O)c4cccc([N+](=O)[O-])c4)n3)ccc2N1 [Compound 7],Yes
13,O=C(O)CCNS(=O)(=O)c1ccc2[nH]c(=O)[nH]c2c1 [Compound 25],Yes
14,O=[N+]([O-])c1cccc(CN2CCN(S(=O)(=O)c3ccc4ccccc4c3)CC2)c1 [Compound 5],Yes
15,O=C(O)CC(CNC(=O)CCn1nnc2ccccc2c1=O)c1ccc(Cl)cc1 (stereo not shown) [Compound 4],Yes
16,CC(C(=O)O)C(NC(=O)C(C)n1nnc(-c2ccccc2)n1)c1ccccc1 (stereo not shown) [Compound 61],Yes
17,O=C(O)CCC(=Cc1ccc(OCC(=O)O)cc1)c1nc2ccccc2s1 [Compound 44],Yes
18,O=c1oc2cc(OCc3nnn[nH]3)ccc2cc1-c1ccccc1 [Compound 13],No

row,Structure (SMILES),HD (inhibition of the hydrolase activity)
1,COc1ccc(C=C2C(=O)Nc3ccc(C(=O)O)cc32)cc1 [Compound 37],No
2,O=C(CC(C(=O)O)C1CCCO1)NCCc1ccc2c(c1)OCO2 (stereo not shown) [Compound 36],yes
3,O=C1c2cccc3cc([N+](=O)[O-])cc(c23)C(=O)N1O [Compound 50],No
4,O=C(O)Cn1cc(/C=C2/C(=O)Nc3ccccc32)c2ccccc21 [Compound 40],No
5,O=[N+]([O-])c1ccccc1OCCn1nnc(-c2ccccc2)n1 [Compound 60],Yes
6,O=c1oc2cc(OCc3nnn[nH]3)ccc2cc1-c1ccc(F)cc1 [Compound 14],No
7,COc1ccc2[nH]cc(CCNC(=O)c3nccnc3C(=O)O)c2c1 [Compound 29],Yes
8,Cc1ccccc1-n1c(SCC(=O)NC(=O)c2cccc([N+](=O)[O-])c2)nnc1-c1ccncc1 [Compound 65],Yes
9,Fc1cccc(-c2nnn(Cc3nnn[nH]3)n2)c1 [Compound 58],Yes
10,Cc1c(CC(=O)O)c(=O)oc2cc(O)cc(O)c12 [Compound 1],Yes
11,O=C(O)CNS(=O)(=O)c1ccc2c(c1)NC(=O)CS2 [Compound 3],Yes
12,O=c1oc2cc(OCc3nnn[nH]3)ccc2cc1-c1ccc(Cl)cc1 [Compound 20],Yes
13,Cc1nnc2ccc(N3CCN(C(=O)Nc4ccccc4[N+](=O)[O-])CC3)nn12 [Compound 56],Yes
14,Cc1ccc(Nc2nc(N/N=C/c3cc(Cl)ccc3O)nc(Nc3ccc([N+](=O)[O-])cc3)n2)cc1C [Compound 66],No
15,O=C(O)CCCC(=O)Nc1cc2[nH]c(=O)[nH]c2cc1N1CCCC1 [Compound 35],yes
16,O=C(c1cc(-c2cccc(Cl)c2)[nH]n1)N1CCc2ccc([N+](=O)[O-])cc21 [Compound 30],Yes
17,Cc1ccc(-n2cnnn2)cc1OCc1nnn[nH]1 [Compound 57],Yes
